Consider 21 molecules from patent US20250368645A1, “BETA CARBOLINE ANALOGUES AS SELECTIVE AND BIASED KAPPA OPIOID RECEPTORS AGONISTS FOR TREATING VARIOUS ASSOCIATED PATHOPHYSIOLOGICAL CONDITIONS” (COUNCIL OF SCIENTIFIC AND INDUSTRIAL RESEARCH, priority 2022, published 2025).

In test [1] the test system is paclitaxel (PTX)-treated mice. Briefly: Paclitaxel-induced peripheral neuropathy model. The class given is in vivo. As to conditions: 8abd 5 and 10 mg/kg p.o.; duloxetine 10 mg/kg; 16 days.
The target of test [2] is T1, human KOR (Homo sapiens, UniProt P41145). Nature of the test: GloSensor assay, Gi-mediated cAMP inhibition in HEK-293T cells transfected with human KOR.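 As to agonist at KOR (pIC50): value taken from a statement in the text not a table.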 It is filed as cell-based. To be noted: for G-Protein Bias factor (IC50 -Glosensor/- EC50 - Tango): KOR, GloSensor versus Tango.
Target sequence in this assay (P41145 whole entry): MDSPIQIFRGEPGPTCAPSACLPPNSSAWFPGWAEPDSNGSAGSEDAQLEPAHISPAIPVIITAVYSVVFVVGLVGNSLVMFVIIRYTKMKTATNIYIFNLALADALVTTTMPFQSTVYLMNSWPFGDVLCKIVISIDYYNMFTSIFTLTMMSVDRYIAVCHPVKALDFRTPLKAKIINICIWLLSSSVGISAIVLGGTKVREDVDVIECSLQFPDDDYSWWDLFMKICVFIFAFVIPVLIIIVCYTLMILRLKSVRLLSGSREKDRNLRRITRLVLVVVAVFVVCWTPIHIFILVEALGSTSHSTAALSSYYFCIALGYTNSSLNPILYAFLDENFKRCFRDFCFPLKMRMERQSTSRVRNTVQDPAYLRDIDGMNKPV
In a further test the target is MOR (Homo sapiens, UniProt P35372). Nature of the test: GloSensor assay at MOR. The class given is cell-based. To be noted: given as Log IC50 (negative values).
MOR, sequence (P35372 whole entry): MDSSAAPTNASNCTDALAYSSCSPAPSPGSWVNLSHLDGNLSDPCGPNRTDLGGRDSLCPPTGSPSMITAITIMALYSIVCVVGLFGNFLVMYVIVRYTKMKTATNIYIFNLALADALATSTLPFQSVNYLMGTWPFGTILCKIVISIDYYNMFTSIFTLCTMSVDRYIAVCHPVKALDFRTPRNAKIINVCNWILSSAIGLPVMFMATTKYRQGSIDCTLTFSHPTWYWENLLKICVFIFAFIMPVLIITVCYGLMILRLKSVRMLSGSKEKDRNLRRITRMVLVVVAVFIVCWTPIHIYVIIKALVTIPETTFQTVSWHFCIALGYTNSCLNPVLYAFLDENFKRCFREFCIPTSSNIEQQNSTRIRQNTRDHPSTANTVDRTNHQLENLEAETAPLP
The next test concerns the target DOR (Homo sapiens, UniProt P41143). Nature of the test: GloSensor assay at DOR. It is filed as cell-based. To be noted: given as Log IC50 (negative values).
The target in test [3] is T1, human KOR. Nature of the test: β-arrestin2 Tango assay in HTLA cells transiently transfected with human KOR. As to conditions: Table 2, KOR; for EC50: read-out: B-arrestin Tango Assay (pEC50) (converted). The class given is cell-based.
Target sequence in this assay (P41145 whole entry, added parts left off): as the sequence (P41145 whole entry) above
Setting [4] is: Table 2, KOR, read-out: GloSensor Assay (pIC50) (converted).
[5] abbreviates: given as Log IC50 (negative values), agonist activity, inhibition of FSK-stimulated cAMP, read-out: GloSensor Assay (Log IC50) KOR (converted).
The mark [6] stands for this setting: read-out: agonist at KOR (pIC50) (converted).

Read-outs that look alike come from different tables or passages of the source.

DOR, sequence (P41143 whole entry): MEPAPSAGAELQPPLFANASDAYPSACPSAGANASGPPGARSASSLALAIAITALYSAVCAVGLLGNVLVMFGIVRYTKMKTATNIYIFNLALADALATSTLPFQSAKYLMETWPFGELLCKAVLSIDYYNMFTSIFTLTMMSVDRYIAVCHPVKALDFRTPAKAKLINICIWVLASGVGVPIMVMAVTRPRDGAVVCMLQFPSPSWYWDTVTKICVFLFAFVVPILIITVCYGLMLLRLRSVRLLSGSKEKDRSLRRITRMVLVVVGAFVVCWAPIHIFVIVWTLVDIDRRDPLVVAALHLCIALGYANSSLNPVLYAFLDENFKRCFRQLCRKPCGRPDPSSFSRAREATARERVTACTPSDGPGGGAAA

For `CNCC[C@H](Oc1cccc2ccccc12)c1cccs1` [duloxetine, reference compound], in test [1], the “mechanical pain (mechanical hyperalgesia, Von frey hair test), chronic administration” value is listed as “significantly improved” and the “thermal hyperalgesia (Hargreaves test), chronic administration” value is “significantly improved”.

Consider `Clc1ccc(-n2c[n+]3ccc4c5ccccc5[nH]c4c3c2-c2ccccc2Cl)cc1.[Cl-]` [8aec, 1-(2-Chlorophenyl)-2-(4-chlorophenyl)-2,11-dihydroimidazo[1′,5′:1,2]pyrido[3,4-b]indol-4-ium chloride], for which the “G-Protein Bias factor (IC50 -Glosensor/- EC50 - Tango)” value (from here on “G-Protein Bias factor”) at human KOR [2] is on record as 1.23. The IC50 is 7.94 nM on human KOR [2] (setting [4]); 7.94 nM at human KOR [2] (setting [5]); under 31.6 nM at human KOR [2] (setting [6]); 501 nM on MOR; over 10000 nM against DOR. Besides, the EC50 on human KOR [3] is 135 nM.

Regarding `Fc1ccc(-n2c[n+]3ccc4c5ccccc5[nH]c4c3c2-c2ccccc2Br)cc1.[Cl-]` [8acd, 1-(2-Bromophenyl)-2-(4-fluorophenyl)-2,11-dihydroimidazo[1′,5′:1,2]pyrido[3,4-b]indol-4-ium chloride], on human KOR [2], the “G-Protein Bias factor” value amounted to 3. For the same molecule, the IC50 at human KOR [2] (setting [4]) is 1.58 nM; on human KOR [2] (setting [5]) it was 1.58 nM; on human KOR [2] (setting [6]) it was under 31.6 nM; at MOR it was over 10000 nM; against DOR, over 10000 nM. In addition, the EC50 at human KOR [3] is 1580 nM.

`Clc1ccc(-c2c3c4[nH]c5ccccc5c4cc[n+]3cn2-c2ccc(Br)cc2)cc1.[Cl-]` [8adb, 2-(4-Bromophenyl)-1-(4-chlorophenyl)-2,11-dihydroimidazo[1′,5′:1,2]pyrido[3,4-b]indol-4-ium chloride]: the “G-Protein Bias factor” value at human KOR [2] is given as 1.44. The IC50 at human KOR [2] (setting [4]) was 20 nM; at human KOR [2] (setting [5]), 20 nM; at human KOR [2] (setting [6]), under 31.6 nM; at MOR it was over 10000 nM; against DOR, over 10000 nM. The EC50 on human KOR [3] was 550 nM.

In the case of `Brc1ccc(-c2c3c4[nH]c5ccccc5c4cc[n+]3cn2-c2cccc(Br)c2)cc1.[Cl-]` [8abe, 2-(3-Bromophenyl)-1-(4-bromophenyl)-2,11-dihydroimidazo[1′,5′:1,2]pyrido[3,4-b]indol-4-ium chloride], the “G-Protein Bias factor” value on human KOR [2] is 1.72. Further, the IC50 is 12.9 nM at human KOR [2] (setting [4]); 1.26 nM on human KOR [2] (setting [5]); under 31.6 nM at human KOR [2] (setting [6]); over 10000 nM against MOR; over 10000 nM at DOR. The EC50 at human KOR [3] was 676 nM.

For the molecule `Clc1ccc(-c2c3c4[nH]c5ccccc5c4cc[n+]3cn2-c2ccc(Cl)cc2)cc1.[Cl-]` [8adc, 1,2-Bis(4-chlorophenyl)-2,11-dihydrolmidazo[1′,5′:1,2]pyrido[3,4-b]indol-4-ium chloride], the “G-Protein Bias factor” value at human KOR [2] was 3.28. The IC50 at human KOR [2] (setting [4]) was 0.501 nM; on human KOR [2] (setting [5]) it was 1.58 nM; on human KOR [2] (setting [6]) it was under 31.6 nM; on MOR it was over 10000 nM; on DOR, over 10000 nM. The EC50 on human KOR [3] is 955 nM.

As to `Clc1ccc(-n2c[n+]3ccc4c5ccccc5[nH]c4c3c2-c2ccccc2Br)cc1.[Cl-]` [8acc, 1-(2-Bromophenyl)-2-(4-chlorophenyl)-2,11-dihydrolmidazo[1′,5′:1,2]pyrido[3,4-b]indol-4-ium], the “G-Protein Bias factor” value on human KOR [2] was 2.89. The IC50 at human KOR [2] (setting [4]) was 0.589 nM; on human KOR [2] (setting [5]) it was 1.58 nM; at human KOR [2] (setting [6]), under 31.6 nM; against MOR it was 2000 nM; on DOR, 3980 nM. In addition, the EC50 on human KOR [3] is 457 nM.

For the molecule `Cc1ccc(-c2c3c4[nH]c5ccccc5c4cc[n+]3cn2-c2ccc(F)cc2)cc1.[Cl-]` [8akd, 2-(4-Fluorophenyl)-1-(p-tolyl)-2,11-dihydroimidazo[1′,5′:1,2]pyrido[3,4-b]indol-4-ium chloride], the “G-Protein Bias factor” value on human KOR [2] is reported as 3.15. The IC50 is 0.641 nM at human KOR [2] (setting [4]); 1.58 nM on human KOR [2] (setting [5]); under 31.6 nM at human KOR [2] (setting [6]); over 10000 nM on MOR; over 10000 nM on DOR. Further, the EC50 at human KOR [3] was 916 nM.

Take `Fc1ccc(-n2c[n+]3ccc4c5ccccc5[nH]c4c3c2-c2ccccc2Cl)cc1.[Cl-]` [8aed, 1-(2-Chlorophenyl)-2-(4-fluorophenyl)-2,11-dihydroimidazo[1′,5′:1,2]pyrido[3,4-b]indol-4-ium chloride]: the “G-Protein Bias factor” value on human KOR [2] came out at 1.06. Moreover, the IC50 on human KOR [2] (setting [4]) was 10 nM; at human KOR [2] (setting [5]), 10 nM; at human KOR [2] (setting [6]) it was under 31.6 nM; on MOR, over 10000 nM; against DOR, over 10000 nM. Besides, the EC50 at human KOR [3] was 115 nM.

Take `Clc1ccc(-n2c[n+]3ccc4c5ccccc5[nH]c4c3c2-c2ccc(Br)cc2)cc1.[Cl-]` [8abc, 1-(4-Bromophenyl)-2-(4-chlorophenyl)-2,11-dihydromidazo[1′,5′:1,2]pyrido[3,4-b]indol-4-ium chloride]: on human KOR [2], the “G-Protein Bias factor” value was 2.35. Moreover, the IC50 on human KOR [2] (setting [4]) was 1.12 nM; at human KOR [2] (setting [5]) it was 0.631 nM; at human KOR [2] (setting [6]), under 31.6 nM; against MOR it was over 10000 nM; against DOR, over 10000 nM. Besides, the EC50 at human KOR [3] was 251 nM.

Take `Clc1ccc(-n2c[n+]3c4ccccc4c4c5ccccc5[nH]c4c3c2-c2ccc(Br)cc2)cc1` [12bd, 1-(4-Bromophenyl)-2-(4-chlorophenyl)-2,13-dihydroimidazo[1,5-a]indolo[2,3-c]quinolin-4-ium chloride]: the IC50 on human KOR [2] (setting [5]), against MOR and on DOR was over 10000 nM in each case.

On to `Brc1cccc(-n2c[n+]3ccc4c5ccccc5[nH]c4c3c2-c2ccccc2)c1` [8aae, 2-(3-Bromophenyl)-1-phenyl-2,11-dihydrolmidazo[1′,5′:1,2]pyrido[3,4-b]indol-4-ium chloride], for which the IC50 on human KOR [2] (setting [5]), at MOR and at DOR was over 10000 nM each time.

In the case of `Cn1c2ccccc2c2cc[n+]3cn(-c4ccc(Cl)cc4)c(-c4ccc(Cl)cc4)c3c21` [8ddc, 1,2-Bis(4-chlorophenyl)-11-methyl-2,11-dihydroimidazo[1′,5′:1,2]pyrido[3,4-b]indol-4-iumchloride], the IC50 on human KOR [2] (setting [5]), at MOR and on DOR was over 10000 nM throughout.

Turning to `Clc1ccccc1-c1c2c3[nH]c4ccccc4c3cc[n+]2cn1-c1ccccc1` [8aea, 1-(2-Chlorophenyl)-2-phenyl-2,11-dihydroimidazo[1′,5′:1,2]pyrido[3,4-b]indol-4-ium chloride], the IC50 on human KOR [2] (setting [5]), against MOR and against DOR was over 10000 nM each time.

For `Fc1ccc(F)c(Cn2c[n+]3ccc4c5ccccc5[nH]c4c3c2-c2ccc(Br)cc2)c1` [9aaf], the IC50 at human KOR [2] (setting [5]), against MOR and against DOR was over 10000 nM each time.

In the case of `Fc1ccc(-n2c[n+]3ccc4c5ccccc5[nH]c4c3c2-c2ccccc2)cc1` [8aad, 2-(4-Fluorophenyl)-1-phenyl-2,11-dihydroimidazo[1′,5′:1,2]pyrido[3,4-b]indol-4-ium chloride], the IC50 was 269 nM at human KOR [2] (setting [5]), over 10000 nM on MOR and over 10000 nM against DOR.

As to `Fc1ccc(-n2c[n+]3ccc4c5ccccc5[nH]c4c3c2-c2ccc(Cl)cc2)cc1.[Cl-]` [8add, 1-(4-Chlorophenyl)-2-(4-fluorophenyl)-2,11-dihydroimidazo[1′,5′:1,2]pyrido[3,4-b]indol-4-ium chloride], on human KOR [2], the “G-Protein Bias factor” value was determined as 2.67. Further, the IC50 at human KOR [2] (setting [4]) is 2.94 nM; on human KOR [2] (setting [5]), 3.98 nM; on human KOR [2] (setting [6]), under 31.6 nM; at MOR, over 10000 nM; on DOR, over 10000 nM. Further, the EC50 on human KOR [3] was 1380 nM.

Turning to “2-(4-Fluorophenyl)-1-(4-methoxyphenyl)-2,11-dihydroimidazo[1′,5′:1,2]pyrido[3,4-b]indol-4-ium [8aod]”, on human KOR [2], the “G-Protein Bias factor” value was 1.68. In addition, the “GloSensor Assay (pIC50)” value at human KOR [2] (Table 2, KOR) is reported as 7.9. The “GloSensor Assay (Log IC50) KOR” value at human KOR [2] (given as Log IC50 (negative values), agonist activity, inhibition of FSK-stimulated cAMP) is recorded as −7.9. Also, the “GloSensor Assay (Log IC50) MOR” value on MOR is on record as over −5. The “GloSensor Assay (Log IC50) DOR” value on DOR is on record as over −5. Besides, the “B-arrestin Tango Assay (pEC50)” value on human KOR [3] is 6.22.

Regarding `Brc1ccc2[nH]c3c(cc[n+]4cn(-c5ccccc5)c(-c5ccccc5Br)c34)c2c1` [8cca, 8-Bromo-1-(2-bromophenyl)-2-phenyl-2,11-dihydrolmidazo[1′,5′:1,2]pyrido[3,4-b]indol-4-ium chloride], the IC50 on human KOR [2] (setting [5]), against MOR and at DOR was over 10000 nM each time.

As to `Fc1ccc(-n2c[n+]3c4ccccc4c4c5ccccc5[nH]c4c3c2-c2ccc(Br)cc2)cc1` [12cc, 1-4-Bromphenyl)-2-(4-fluorophenyl)-2,13-dihydroimidazo[1,5-a]indolo[2,3-c]quinolin-4-ium chloride], the IC50 at human KOR [2] (setting [5]), at MOR and on DOR was over 10000 nM throughout.

For `Brc1ccc(-n2c[n+]3ccc4c5ccccc5[nH]c4c3c2-c2ccccc2Br)cc1.[Cl-]` [8acb, 1-(2-Bromophenyl)-2-(4-bromophenyl)-2,11-dihydroimidazo[1′,5′:1,2]pyrido[3,4-b]indol-4-ium chloride], on human KOR [2], the “G-Protein Bias factor” value came out at 3.6. Also, the IC50 on human KOR [2] (setting [4]) was 0.115 nM; on human KOR [2] (setting [5]), 2.51 nM; on human KOR [2] (setting [6]), under 31.6 nM; at MOR, over 10000 nM; against DOR, over 10000 nM. Also, on human KOR [3], the EC50 is 457 nM.
